Assay results as given in US8377974B2 (Millennium Pharmaceuticals, Inc., priority 2004, dated 2013).

Target: T1, human plasma protein factor Xa (Homo sapiens, UniProt P00742)
T1 construct: measure proteolytic activity of the enzyme (factor Xa); purchased Haematologic Technologies (Essex Junction, Vt.); host or cells: human plasma
Test: Factor Xa IC50 determination: cleavage of paranitroanilide substrate S-2765 in 96-well plates
Format: biochemical
Conditions: fXa 1 nM, S-2765 100 μM, Tris buffered saline pH 7.4, room temperature
How it was run: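 Human plasma factor Xa (1 nM) preincubated 5 min at room temperature with inhibitor (0.01 nM–10 μM final) in Tris-buffered saline pH 7.4 with 5 mM CaCl2, 0.1% BSA, 5% DMSO. S-2765 at 100 μM final; hydrolysis at 405 nm over 2 min. IC50 from 4-parameter fit of initial velocities.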

T1 sequence (P00742 235-488 limits assumed): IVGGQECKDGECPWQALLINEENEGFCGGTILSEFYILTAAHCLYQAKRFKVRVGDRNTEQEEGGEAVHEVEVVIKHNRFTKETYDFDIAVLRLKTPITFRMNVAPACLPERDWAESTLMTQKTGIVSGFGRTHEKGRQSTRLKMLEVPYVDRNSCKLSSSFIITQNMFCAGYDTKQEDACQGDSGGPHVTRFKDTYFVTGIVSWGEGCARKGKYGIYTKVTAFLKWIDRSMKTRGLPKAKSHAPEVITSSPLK
T1 sequence (P00742 41-179 partner limits assumed): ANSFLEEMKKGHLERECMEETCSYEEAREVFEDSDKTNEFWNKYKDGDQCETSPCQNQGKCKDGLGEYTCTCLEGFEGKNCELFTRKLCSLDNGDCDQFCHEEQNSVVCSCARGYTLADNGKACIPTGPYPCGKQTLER

SMILES	IC50
N=C(c1ccc(C2=NOC(CNC(=O)c3ccc(Cl)s3)C2)cc1)N1CCCCC1 (stereo not shown) [Example 11, 5-Chloro-thiophene-2-carboxylic acid {3-[4-(imino-piperidin-1-yl-methyl)-phenyl]-4,5-dihydro-isoxazol-5-ylmethyl}-amide]	0.1 to 0.5 µM
C[C@@H](NC(=O)c1ccc(Cl)s1)c1cc(-c2ccc(C3=NCCN3C)cc2)no1 [Example 50, (R)-5-Chloro-thiophene-2-carboxylic acid (1-{3-[4-(1-methyl-4,5-dihydro-1H-imidazol-2-yl)-phenyl]-isoxazol-5-yl}-ethyl)-amide]	≤ 0.1 µM
COc1ccc(Nc2ccc(-c3cc(CNC(=O)c4ccc(Cl)s4)on3)cc2)cc1 [Example 251, 5-Chloro-thiophene-2-carboxylic acid {3-[4-(4-methoxy-phenylamino)-phenyl]-isoxazol-5-ylmethyl}-amide]	≥ 0.5 µM
Cn1ccc(Nc2ccc(C3=NOC(CNC(=O)c4ccc(Cl)s4)C3)cc2)n1 (stereo not shown) [Example 233, 5-Chloro-thiophene-2-carboxylic acid {3-[4-(1-methyl-1H-pyrazol-3-ylamino)-phenyl]-4,5-dihydro-isoxazol-5-ylmethyl}-amide]	0.1 to 0.5 µM
O=C(NCC1CC(c2ccc(N3CCCCC3=O)cc2)=NO1)c1ccc(Cl)s1 (stereo not shown) [Example 241, 5-Chloro-thiophene-2-carboxylic acid {3-[4-(2-oxo-piperidin-1-yl)-phenyl]-4,5-dihydro-isoxazol-5-ylmethyl}-amide]	0.1 to 0.5 µM
O=C(NCC1CC(c2ccc(-c3ccccc3C(F)(F)F)cc2)=NO1)c1ccc(Cl)s1 (stereo not shown) [Example 187, 5-Chloro-thiophene-2-carboxylic acid [3-(2′-trifluoromethyl-biphenyl-4-yl)-4,5-dihydro-isoxazol-5-ylmethyl]-amide]	0.1 to 0.5 µM
COC[C@H]1CCCN1c1ccc(C2=NOC(CNC(=O)c3ccc(Cl)s3)C2)cc1 (stereo partly shown) [Example 236, 5-Chloro-thiophene-2-carboxylic acid {3-[4-(2-methoxymethyl-pyrrolidin-1-yl)-phenyl]-4,5-dihydro-isoxazol-5-ylmethyl}-amide]	≥ 0.5 µM
O=C(NCc1cn(-c2ccc(-n3cccc(F)c3=O)cc2)nn1)c1ccc(Cl)s1 [Example 291, 5-Chloro-N-((1-(4-(3-fluoro-2-oxopyridin-1(2H)-yl)phenyl)-1H-1,2,3-triazol-4-yl)methyl)thiophene-2-carboxamide]	≤ 0.1 µM
CN(C)C(=N)c1ccc(-c2noc(CNC(=O)c3ccc(Cl)s3)n2)cc1 [Example 334, N-((3-(4-(N,N-Dimethylcarbamimidoyl)phenyl)-1,2,4-oxadiazol-5-yl)methyl)-5-chlorothiophene-2-carboxamide]	≤ 0.1 µM
O=C(NCC1CC(c2ccc(Nc3ccnc4c(C(F)(F)F)cccc34)cc2)=NO1)c1ccc(Cl)s1 (stereo not shown) [Example 393, 5-Chloro-N-((3-(4-(8-(trifluoromethyl)quinolin-4-ylamino)phenyl)-4,5-dihydroisoxazol-5-yl)methyl)thiophene-2-carboxamide]	≥ 0.5 µM
O=C(NCc1cn(-c2ccc(N3CCOCC3=O)cc2F)nn1)c1ccc(Cl)s1 [Example 306, 5-Chloro-N-((1-(2-fluoro-4-(3-oxomorpholino)phenyl)-1H-1,2,3-triazol-4-yl)methyl)thiophene-2-carboxamide]	≤ 0.1 µM
CN(Cc1ccco1)C(=N)c1ccc(-c2nc(CNC(=O)c3ccc(Cl)s3)co2)cc1 [Example 349, N-((2-(4-(N-(Furan-2-ylmethyl)-N-methylcarbamimidoyl)phenyl)oxazol-4-yl)methyl)-5-chlorothiophene-2-carboxamide]	0.1 to 0.5 µM
C[C@H](NC(=O)c1ccc(Cl)s1)c1cc(-c2ccc(C(=N)N3CCCC3)cc2)no1 [Example 55, (S)-5-Chloro-thiophene-2-carboxylic acid (1-{3-[4-(imino-pyrrolidin-1-yl-methyl)-phenyl]-isoxazol-5-yl}-ethyl)-amide]	≥ 0.5 µM
